This experiment addresses Nav 1.7 (Homo sapiens (Human), UniProt Q15858). The experiment can be described thus: in-vitro Nav 1.7 PX (IC50). Type of experiment: cell-based. Conditions: in-vitro Nav 1.7 PX data.
Nav 1.7, sequence (Q15858 whole entry): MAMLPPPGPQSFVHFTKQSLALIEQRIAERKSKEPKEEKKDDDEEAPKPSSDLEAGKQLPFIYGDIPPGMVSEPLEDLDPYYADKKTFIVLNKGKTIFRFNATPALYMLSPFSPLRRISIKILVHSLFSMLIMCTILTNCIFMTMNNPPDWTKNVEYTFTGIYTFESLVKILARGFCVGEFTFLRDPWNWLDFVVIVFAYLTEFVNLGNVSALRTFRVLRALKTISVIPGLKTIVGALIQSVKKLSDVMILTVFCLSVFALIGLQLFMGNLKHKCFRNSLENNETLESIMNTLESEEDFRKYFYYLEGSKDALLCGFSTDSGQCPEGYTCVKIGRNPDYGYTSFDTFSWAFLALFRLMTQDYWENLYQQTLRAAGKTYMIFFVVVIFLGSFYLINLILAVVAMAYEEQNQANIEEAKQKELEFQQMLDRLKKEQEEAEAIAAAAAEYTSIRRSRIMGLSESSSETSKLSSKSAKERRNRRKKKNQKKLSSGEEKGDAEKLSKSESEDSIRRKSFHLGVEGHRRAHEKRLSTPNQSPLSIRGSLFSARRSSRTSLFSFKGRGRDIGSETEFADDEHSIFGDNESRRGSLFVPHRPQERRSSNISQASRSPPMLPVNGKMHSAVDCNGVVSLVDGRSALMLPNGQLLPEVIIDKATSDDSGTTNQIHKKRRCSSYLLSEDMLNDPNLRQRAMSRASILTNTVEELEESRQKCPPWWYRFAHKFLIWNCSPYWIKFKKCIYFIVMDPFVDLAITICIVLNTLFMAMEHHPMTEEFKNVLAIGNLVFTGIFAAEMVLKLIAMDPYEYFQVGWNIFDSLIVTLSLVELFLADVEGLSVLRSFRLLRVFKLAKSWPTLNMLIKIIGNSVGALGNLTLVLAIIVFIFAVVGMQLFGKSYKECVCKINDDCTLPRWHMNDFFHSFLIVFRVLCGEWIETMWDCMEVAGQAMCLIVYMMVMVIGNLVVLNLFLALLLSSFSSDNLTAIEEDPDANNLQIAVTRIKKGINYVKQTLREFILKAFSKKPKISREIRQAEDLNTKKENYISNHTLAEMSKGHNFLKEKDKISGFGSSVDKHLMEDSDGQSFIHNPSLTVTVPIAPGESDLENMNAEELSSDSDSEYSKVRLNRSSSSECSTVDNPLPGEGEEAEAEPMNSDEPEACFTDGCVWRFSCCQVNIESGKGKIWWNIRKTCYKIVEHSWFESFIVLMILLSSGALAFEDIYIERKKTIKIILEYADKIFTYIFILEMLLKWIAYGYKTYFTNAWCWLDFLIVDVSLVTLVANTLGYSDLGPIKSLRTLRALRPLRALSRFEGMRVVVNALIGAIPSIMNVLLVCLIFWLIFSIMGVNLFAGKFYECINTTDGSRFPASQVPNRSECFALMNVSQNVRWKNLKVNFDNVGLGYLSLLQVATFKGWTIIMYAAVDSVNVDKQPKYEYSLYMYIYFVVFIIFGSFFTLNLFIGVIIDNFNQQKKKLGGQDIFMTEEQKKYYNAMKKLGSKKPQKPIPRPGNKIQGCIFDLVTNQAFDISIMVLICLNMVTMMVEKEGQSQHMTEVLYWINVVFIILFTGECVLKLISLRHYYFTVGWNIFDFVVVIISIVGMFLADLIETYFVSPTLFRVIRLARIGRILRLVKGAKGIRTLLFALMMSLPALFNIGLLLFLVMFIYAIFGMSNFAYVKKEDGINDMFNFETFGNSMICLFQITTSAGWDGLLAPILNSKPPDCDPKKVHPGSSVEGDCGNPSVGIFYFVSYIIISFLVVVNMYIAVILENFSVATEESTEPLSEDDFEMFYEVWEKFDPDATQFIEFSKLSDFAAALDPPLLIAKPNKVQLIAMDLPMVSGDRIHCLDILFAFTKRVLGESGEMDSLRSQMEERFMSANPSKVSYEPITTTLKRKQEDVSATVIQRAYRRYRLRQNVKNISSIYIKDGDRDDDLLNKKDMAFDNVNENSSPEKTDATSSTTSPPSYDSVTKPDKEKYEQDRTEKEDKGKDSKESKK
One may read the IC50 as the concentration that inhibits the measured activity by half. In turn, `COc1cc(-c2cc(F)cc(Cl)c2)c(F)cc1-n1c(=O)ccc2cc(S(=O)(=O)Nc3ccnc(C)n3)ccc21` [Example 934, 1-(3′-chloro-2,5′-difluoro-5-methoxy-4-biphenylyl)-N-(2-methyl-4-pyrimidinyl)-2-oxo-1,2-dihydro-6-quinolinesulfonamide] gave an IC50 of 6 nM.

Compound `COc1cc(-c2ccc(F)c(F)c2)c(F)cc1-n1c(=O)ccc2cc(S(=O)(=O)Nc3ncccn3)ccc21` [Example 935, 2-oxo-N-2-pyrimidinyl-1-(2,3′,4′-trifluoro-5-methoxy-4-biphenylyl)-1,2-dihydro-6-quinolinesulfonamide] came in with a concentration for half-maximal inhibition (IC50) of 22 nM.

`COc1cc(-c2ccc(F)c(F)c2)c(F)cc1-n1c(=O)ccc2cc(S(=O)(=O)Nc3ncco3)ccc21` [Example 936, N-1,3-oxazol-2-yl-2-oxo-1-(2,3′,4′-trifluoro-5-methoxy-4-biphenylyl)-1,2-dihydro-6-quinolinesulfonamide] registered an IC50 of 41 nM.

As to `COc1cc(-c2ccc(F)c(F)c2)c(F)cc1-n1c(=O)ccc2cc(S(=O)(=O)Nc3ncc(F)cn3)ccc21` [Example 937, N-(5-fluoro-2-pyrimidinyl)-2-oxo-1-(2,3′,4′-trifluoro-5-methoxy-4-biphenylyl)-1,2-dihydro-6-quinolinesulfonamide], the IC50 turned out to be 29 nM.

`COc1cc(-c2ccc(F)c(F)c2)c(F)cc1-n1c(=O)ccc2cc(S(=O)(=O)Nc3cc(C)ncn3)ccc21` [Example 938, N-(6-methyl-4-pyrimidinyl)-2-oxo-1-(2,3′,4′-trifluoro-5-methoxy-4-biphenylyl)-1,2-dihydro-6-quinolinesulfonamide]: the midpoint of inhibition, the IC50, lay at 47 nM.

`COc1cc(-c2ccc(F)c(F)c2)c(F)cc1-n1c(=O)ccc2cc(S(=O)(=O)Nc3ccnc(C)n3)ccc21` [Example 939, N-(2-methyl-4-pyrimidinyl)-2-oxo-1-(2,3′,4′-trifluoro-5-methoxy-4-biphenylyl)-1,2-dihydro-6-quinolinesulfonamide] registered an IC50 of 41 nM.

`COc1cc(-c2ccc(F)c(C)c2)c(F)cc1-n1c(=O)ccc2cc(S(=O)(=O)Nc3ncccn3)ccc21` [Example 940, 1-(2,4′-difluoro-5-methoxy-3′-methyl-4-biphenylyl)-2-oxo-N-2-pyrimidinyl-1,2-dihydro-6-quinolinesulfonamide] returned a 50% inhibitory concentration (IC50) of 34 nM.

`COc1cc(-c2ccc(F)c(C)c2)c(F)cc1-n1c(=O)ccc2cc(S(=O)(=O)Nc3ncc(F)cn3)ccc21` [Example 942, 1-(2,4′-difluoro-5-methoxy-3′-methyl-4-biphenylyl)-N-(5-fluoro-2-pyrimidinyl)-2-oxo-1,2-dihydro-6-quinolinesulfonamide]: the half-inhibitory concentration (IC50) stood at 31 nM.

In the case of `COc1cc(-c2ccc(F)c(C)c2)c(F)cc1-n1c(=O)ccc2cc(S(=O)(=O)Nc3ncco3)ccc21` [Example 943, 1-(2,4′-difluoro-5-methoxy-3′-methyl-4-biphenylyl)-N-1,3-oxazol-2-yl-2-oxo-1,2-dihydro-6-quinolinesulfonamide], the half-maximal inhibitory concentration (IC50) worked out at 13 nM.

With `COc1cc(-c2ccc(F)c(C)c2)c(F)cc1-n1c(=O)ccc2cc(S(=O)(=O)Nc3ccnc(C)n3)ccc21` [Example 944, 1-(2,4′-difluoro-5-methoxy-3′-methyl-4-biphenylyl)-N-(2-methyl-4-pyrimidinyl)-2-oxo-1,2-dihydro-6-quinolinesulfonamide], half-maximal inhibition (IC50) was put at 27 nM.

On to `COc1cc(-c2ccc(F)c(C)c2)c(F)cc1-n1c(=O)ccc2cc(S(=O)(=O)Nc3cc(C)ncn3)ccc21` [Example 945, 1-(2,4′-difluoro-5-methoxy-3′-methyl-4-biphenylyl)-N-(6-methyl-4-pyrimidinyl)-2-oxo-1,2-dihydro-6-quinolinesulfonamide], for which half-maximal inhibition (IC50) was put at 34 nM.

`COc1cc(-c2cccc(C(F)(F)F)c2)ccc1-n1c(=O)ccc2cc(S(=O)(=O)Nc3cc(C)ncn3)ccc21` [Example 946, 1-(3-methoxy-3′-(trifluoromethyl)-4-biphenylyl)-N-(6-methyl-4-pyrimidinyl)-2-oxo-1,2-dihydro-6-quinolinesulfonamide] registered a 50% inhibitory concentration (IC50) of 24 nM.

`COc1cc(-c2cccc(C(F)(F)F)c2)ccc1-n1c(=O)ccc2cc(S(=O)(=O)Nc3ccnc(C)n3)ccc21` [Example 947, 1-(3-methoxy-3′-(trifluoromethyl)-4-biphenylyl)-N-(2-methyl-4-pyrimidinyl)-2-oxo-1,2-dihydro-6-quinolinesulfonamide]: the IC50 is 51 nM.

With `COc1cc(-c2ccc(F)c(C)c2)c(F)cc1-n1c(=O)ccc2cc(S(=O)(=O)Nc3nnc(C)s3)ccc21` [Example 948, 1-(2,4′-difluoro-5-methoxy-3′-methyl-4-biphenylyl)-N-(5-methyl-1,3,4-thiadiazol-2-yl)-2-oxo-1,2-dihydro-6-quinolinesulfonamide], half-maximal inhibition (IC50) required 100 nM.

`COc1cc(-c2cccc(C(F)(F)F)c2)ccc1-n1c(=O)ccc2cc(S(=O)(=O)Nc3cnc(C)cn3)ccc21` [Example 949, 1-(3-methoxy-3′-(trifluoromethyl)-4-biphenylyl)-N-(5-methyl-2-pyrazinyl)-2-oxo-1,2-dihydro-6-quinolinesulfonamide] returned an IC50 of 1240 nM.

On to `COc1cc(-c2cccc(C(F)(F)F)c2)ccc1-n1c(=O)ccc2cc(S(=O)(=O)Nc3cncc(C)n3)ccc21` [Example 950, 1-(3-methoxy-3′-(trifluoromethyl)-4-biphenylyl)-N-(6-methyl-2-pyrazinyl)-2-oxo-1,2-dihydro-6-quinolinesulfonamide], for which the 50% inhibitory concentration (IC50) came to 99 nM.

In turn, `COc1cc(-c2ccccc2F)c(F)cc1-n1c(=O)ccc2cc(S(=O)(=O)Nc3ccon3)ccc21` [Example 951, 1-(2,2′-difluoro-5-methoxy-4-biphenylyl)-N-3-isoxazolyl-2-oxo-1,2-dihydro-6-quinolinesulfonamide] came in with a 50% inhibitory concentration (IC50) of 90 nM.

`COc1cc(-c2ccccc2Cl)c(F)cc1-n1c(=O)ccc2cc(S(=O)(=O)Nc3ccon3)ccc21` [Example 952, 1-(2′-chloro-2-fluoro-5-methoxy-4-biphenylyl)-N-3-isoxazolyl-2-oxo-1,2-dihydro-6-quinolinesulfonamide]: it took 62 nM to reach half-maximal inhibition (IC50).

In the case of `COc1cc(-c2ccccc2C)c(F)cc1-n1c(=O)ccc2cc(S(=O)(=O)Nc3ccon3)ccc21` [Example 953, 1-(2-fluoro-5-methoxy-2′-methyl-4-biphenylyl)-N-3-isoxazolyl-2-oxo-1,2-dihydro-6-quinolinesulfonamide], the half-inhibitory concentration (IC50) worked out at 26 nM.

`COc1ccc(-c2cc(OC)c(-n3c(=O)ccc4cc(S(=O)(=O)Nc5ccon5)ccc43)cc2F)cc1` [Example 954, 1-(2-fluoro-4′,5-dimethoxy-4-biphenylyl)-N-3-isoxazolyl-2-oxo-1,2-dihydro-6-quinolinesulfonamide] displayed an IC50 of 71 nM.

The compound `COc1ccccc1-c1cc(OC)c(-n2c(=O)ccc3cc(S(=O)(=O)Nc4ccon4)ccc32)cc1F` [Example 956, 1-(2-fluoro-2′,5-dimethoxy-4-biphenylyl)-N-3-isoxazolyl-2-oxo-1,2-dihydro-6-quinolinesulfonamide] showed an IC50 of 99 nM.

`COc1cc(F)cc(-c2cc(OC)c(-n3c(=O)ccc4cc(S(=O)(=O)Nc5ncccn5)ccc43)cc2C)c1` [Example 957, 1-(3′-fluoro-5,5′-dimethoxy-2-methyl-4-biphenylyl)-2-oxo-N-2-pyrimidinyl-1,2-dihydro-6-quinolinesulfonamide] returned an IC50 of 23 nM.

For the origin of these results see patent US9212182B2, “Bicyclic sulfonamide compounds as sodium channel inhibitors” (AMGEN INC., priority 2013, dated 2015).
